Results reported in PubChem BioAssay (NCI).
Several values for one entry are separate records, joined by “and”; a condition that tells them apart may be missing. Equal entries are not always repeated.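 Five concentrations, 48 hours, 96-well plates. GI50 marks 50% less growth. At the TGI there is no net growth.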

Experiments:
Experiment in all cases: NCI tumour cell line growth inhibition, 48 h
DMS 273 small cell lung = tested on: DMS 273 small cell lung
HOP-18 NSCLC = tested on: HOP-18 NSCLC
RXF-631 renal = tested on: RXF-631 renal
SNB-78 CNS = tested on: SNB-78 CNS
KM20L2 colon = tested on: KM20L2 colon
LXFL 529 NSCLC = tested on: LXFL 529 NSCLC
M19-MEL melanoma = tested on: M19-MEL melanoma
XF 498 CNS = tested on: XF 498 CNS
MDA-N = tested on: MDA-N
SN12K1 renal = tested on: SN12K1 renal
P388 leukemia = tested on: P388 leukemia

SMILES	TGI (DMS 273 small cell lung) [µM]	TGI (HOP-18 NSCLC) [µM]	TGI (RXF-631 renal) [µM]	TGI (SNB-78 CNS)	TGI (KM20L2 colon) [µM]	TGI (LXFL 529 NSCLC) [µM]	TGI (M19-MEL melanoma)	TGI (XF 498 CNS)	other results
COCCOCOC(C)(C)[C@H](CCOC(C)=O)O[Si](c1ccccc1)(c1ccccc1)C(C)(C)C	26.3	> 100	43.1	97.4 µM	> 100	> 100	43.2 µM	–	–
NC(=O)C12CC3CC(CC(Br)(C3)C1)C2	> 100	> 100	> 100	> 100 µM	> 100	> 100	–	> 100 µM	–
CC1(C)CC2=C(Sc3ccccc3N2)C(=O)C1C(=O)C(=O)Nc1cc(Cl)ccc1Cl (stereo unspecified)	–	–	–	–	–	–	–	–	TGI (MDA-N): > 100 µM
O=C(CCc1nc(=S)[nH][nH]1)Nc1cccc(C(F)(F)F)c1	> 100	> 100	–	> 100 µM	> 100	> 100	–	> 100 µM	–
COc1ccc(-c2onc(-c3c(C)cc(C)cc3C)c2C2=NCCN2)cc1	–	> 100	> 100	> 100 µM	> 100	> 100	> 100 µM	–	–
CCCCc1c2c(nc3c1CCc1cc4cc5c(nc4nc1-3)-c1nc3c(c(CCCC)c1CC5)CCC/C3=C\c1ccccc1)/C(=C/c1ccccc1)CCC2	> 100	–	–	> 100 µM	> 100	> 100	–	–	–
CC(=O)NNc1nc(C)c(C(=O)/C=C/c2ccc(/C=C/C(=O)c3sc(NNC(C)=O)nc3C)cc2)s1	> 100	–	> 100	> 100 µM	–	> 100	> 100 µM	> 100 µM	–
CCC1C(=O)OCc2c1cc1n(c2=O)C(CC)c2c-1nc1ccccc1c2Cl (stereo unspecified)	> 100	98.2	–	> 100 µM	> 100	> 100	> 100 µM	66.5 µM	–
C#C[C@H]1CCCCCC1O (stereo partly specified)	> 100	> 100	> 100	> 100 µM	> 100	> 100	> 100 µM	> 100 µM	–
CCCCCCCCCCCCCP(=O)(NCC(N)=O)OCC (stereo unspecified)	–	14.8	35.5	41.2 µM	32.7	30.8	35.2 µM	34.9 µM	–
CN1CCc2c1nc(-c1cccnc1)c1c2N(C)CC1	> 100	> 100	> 100	> 100 µM	> 100	> 100	> 100 µM	> 100 µM	–
COC(=O)C#CCC1CCCC1C1SCCS1 (stereo unspecified)	> 100	> 100	> 100	> 100 µM	> 100	> 100	> 100 µM	> 100 µM	–
O=C(N/C(=C\c1cc(Cl)ccc1Cl)c1nc2ccc(Cl)cc2[nH]1)c1ccccc1	–	–	–	54.8 µM	32.2	28.1	30 µM	–	–
Cn1nnc2c(C(N)=O)ncn2c1=O	–	> 100	–	> 100 µM	> 100	> 100	> 100 µM	> 100 µM	TGI (MDA-N): > 100 µM
Clc1ccccc1NN(Cc1ccncc1)c1ccccc1Cl	–	–	–	–	–	–	–	–	TGI (MDA-N): 27.8 µM
CC1=C(Cl)C[C@@H](/C(C)=C\Cl)O[C@@]1(O)C(Br)Br	–	–	–	–	–	–	–	–	TGI (MDA-N): 41.8 µM
Nc1ncnc2c1nnn2C1C=C(CO)C(O)C1O (stereo unspecified)	> 100	> 100	–	> 100 µM	> 100	> 100	> 100 µM	> 100 µM	–
COC1(C)C(=O)N2C1N(C(=O)OCc1ccccc1)CC2(C)C (stereo unspecified)	> 100	–	–	–	> 100	> 100	> 100 µM	> 100 µM	–
O=C(NCC(=O)N1CCOC1=O)OCc1ccccc1	> 100	> 100	–	> 100 µM	> 100	–	> 100 µM	> 100 µM	–

SMILES	TGI (DMS 273 small cell lung) [µM]	TGI (HOP-18 NSCLC) [µM]	TGI (RXF-631 renal) [µM]	TGI (SNB-78 CNS)	TGI (KM20L2 colon) [µM]	TGI (LXFL 529 NSCLC) [µM]	TGI (M19-MEL melanoma)	TGI (XF 498 CNS)	other results
NCCC(=O)NC(Cc1cnc[nH]1)C(=O)O (stereo unspecified)	–	–	–	–	–	–	–	–	TGI (MDA-N): > 100 µM
COc1cccc2c1[C@H]1CO[C@H]3C4C[C@H](C(=O)O)C([C@@H](C2)N13)N4C (stereo partly specified)	1.31	> 27.5	–	9.27 µM and > 30.5 µM	7.84	4.98	9.62 µM and 1.32 µM	4.19 µM and 1.5 µM	GI50 (XF 498 CNS): 0.632 µM; GI50 (DMS 273 small cell lung): 0.516 µM; GI50 (HOP-18 NSCLC): 1.13 µM; TGI (SN12K1 renal): 8.4 µM; TGI (P388 leukemia): 5.25 µM; GI50 (SNB-78 CNS): 0.388 µM; TGI (MDA-N): 0.406 µM; GI50 (M19-MEL melanoma): 0.611 µM
N#CC(C#N)=C(N)/C(C#N)=C/c1ccc2[nH]ccc2c1	> 100	> 100	–	> 100 µM	> 100	–	> 100 µM	–	TGI (MDA-N): > 100 µM
COC(=O)/C(C#N)=C1\CCc2ccccc21	> 100	–	–	–	> 100	> 100	> 100 µM	> 100 µM	–
Nc1ccc(C(=O)NN2C(=O)C(Cl)C2c2cccc(O)c2)cc1 (stereo unspecified)	23.3	–	–	40.2 µM	31.8	24.3	38.3 µM	–	–
COc1cc(/C=C\c2ccncc2)cc(OC)c1OC	> 100	> 100	> 100	> 100 µM	> 100	> 100	–	> 100 µM	–
O=NN(CCCl)C(=O)NC1CCC(=O)NC1=O (stereo unspecified)	634	1070	–	864 µM	> 1250	–	972 µM	265 µM	TGI (SN12K1 renal): 348 µM; TGI (P388 leukemia): 256 µM; TGI (MDA-N): 791 µM
Cc1cc(C)nc(NS(=O)(=O)c2ccc(NC(=O)c3cccn4c(=O)c5ccccc5nc34)cc2)n1	> 100	–	–	> 100 µM	> 100	> 100	> 100 µM	> 100 µM	–
CCC[CH2][Sn]([CH2]CCC)([O]C(=O)/C=C/c1ccccc1F)[O]C(=O)/C=C/c1ccccc1F	2.93	2.98	0.972	1.7 µM	2.64	0.304	2.78 µM	0.892 µM	GI50 (XF 498 CNS): 0.258 µM; GI50 (DMS 273 small cell lung): 1.16 µM; GI50 (HOP-18 NSCLC): 1.62 µM; GI50 (RXF-631 renal): 0.253 µM; GI50 (SNB-78 CNS): 0.452 µM; GI50 (KM20L2 colon): 1.34 µM; GI50 (LXFL 529 NSCLC): 0.131 µM; GI50 (M19-MEL melanoma): 0.891 µM
O=C(O)[C@@H](NS(=O)(=O)c1ccc2ccccc2c1)c1ccccc1	> 100	> 100	> 100	–	> 100	> 100	> 100 µM	> 100 µM	–
COc1cc2c(c(OC)c1OC)-c1c(cc3c(c1OC)OCO3)CC(C)C(C)(O)C2OC(=O)c1ccccc1 (stereo unspecified)	–	–	–	–	–	–	–	–	TGI (MDA-N): > 100 µM
Nc1cc2cccc[n+]2c2cccc(Cl)c12	–	–	–	–	–	–	–	–	GI50 (MDA-N): 21.3 µM; TGI (MDA-N): 61.5 µM
N.N.N.N.N.O=S(=O)([O-])C(F)(F)F.O=S(=O)([O-])C(F)(F)F.[Os+8]	–	–	–	77.6 µM	45.3	23.8	–	–	GI50 (SNB-78 CNS): 6.19 µM; GI50 (KM20L2 colon): 20.7 µM; GI50 (LXFL 529 NSCLC): 9.12 µM
COC/N=C(/N)NC#N	91.5	> 100	–	> 100 µM	> 100	> 100	> 100 µM	–	–
Nc1ccc(C(=O)N/C(=C\c2cccc([N+](=O)[O-])c2)c2nc3ccc(Cl)cc3[nH]2)cc1	–	–	> 100	> 100 µM	> 100	> 100	> 100 µM	> 100 µM	–
COc1ccc(Cc2nc3ccccc3s2)cc1OC	29.2	62.2	31.7	44.8 µM	36.5	31.4	29.4 µM	28.8 µM	–
Cc1nc2c(sc(=S)n2-c2ccccc2)c2nc3ccccc3n12	> 100	> 100	> 100	> 100 µM	–	> 100	> 100 µM	–	–
CC(=O)[CH-]C(=O)Nc1ccccc1.CC(=O)[CH-]C(=O)Nc1ccccc1.CC[O-].CC[O-].[Ti+4]	–	> 100	–	> 100 µM	> 100	–	> 100 µM	–	GI50 (HOP-18 NSCLC): > 100 µM; GI50 (SNB-78 CNS): > 100 µM; GI50 (KM20L2 colon): > 100 µM; GI50 (M19-MEL melanoma): > 100 µM
